Laboratory results from patent US20210038730A1, “PEPTIDE NANOFIBERS” (UNIVERSITY OF PORTSMOUTH HIGHER EDUCATION CORPORATION, priority 2018, published 2021).
In brackets after ≈: the same amount, converted by molar mass. Like-named read-outs stand apart in the source and are kept apart here. Values belong to the molecule of their own block, whether it stands above or below them.

Experiments:
in vitro = conditions: human
Protocol: In order to test the permeability of TPGnRH nanofibers across the blood-brain barrier (BBB), a static contact co-culture was set up according to a previous method^7. Briefly, human astrocytes (SC-1800, 25,000 cells/well) were seeded on the abluminal side of a 24-well plate Transwell polycarbonate membrane (3 μm of a pore size, Corning Star, Deeside, UK) coated with human fibronectin. Cells were allowed to attach for 3 days, and then human brain microvascular endothelial cells (hCMEC/D3, 75,000 cells/well) were seeded on the luminal side of the Transwell and co-cultured with astrocytes for five days with a daily change of the media. Transendothelial resistance was measured using EVOM voltohmmeter (World Precision Instruments, Berlin, Germany).
Transwells were washed with HBSS and immersed into HBSS (600 μL in abluminal side). […] Samples (100 μL) were collected from the abluminal side at specific time-points, and fresh HBSS (100 μL) was used to replace the volume from the abluminal compartments. […] PAX was analysed using reverse phase-HPLC with the gradient method described on Table 2. TR-TPGnRH was quantified in POLARstar Omega plate reader spectrophotometer with λexc 596 and λem 615 nm. The permeability coefficient (Papp) was determined using the equation: […]
ΔQr, is the flux of drug along time (μg mL^−1), Vr is the volume of the abluminal side (mL), A is the area of the Transwell membrane, C0 is the concentration of drug in the luminal side, and 60, the converser factor from minutes to seconds^8.

physchem = assay: physchem
Protocol: Paclitaxel (PAX)-loaded TPGnRH nanofibers were prepared by adding a PAX solution (250 μL, 2.562 mg mL^−1 in isopropyl alcohol, IPA) to the dry peptide to achieve a molar ratio of 1:1, 1:1.95, 1:3.68 or 1:7.36 of PAX:TPGnRH. After vortexing, bath and probe sonication (200 watts, amplitude 60%, UP200S Ultrasonic, SciMed, Stockport, UK) for 10 minutes, the IPA was removed by rotary evaporation. The film was re-hydrated in acetate buffer (50 mM, pH 4.5), and the final formulation was centrifuged for 5 minutes at 900 rpm to remove undissolved PAX. Supernatant was collected and the amount of PAX and TPGnRH was quantified by reverse phase-HPLC. […] Morphology of PAX-loaded formulations was evaluated using TEM and AFM, as described above.

[1] = Release from 3D printed cellulose-sodium alginate bioinks; assay type: physicochemical; conditions: PBS
Protocol: Peptide nanofibers were embedded in cellulose nanocrystals and sodium alginate hydrogels. Cellulose nanocrystals were synthesised by sulphuric acid degradation (45% w/v, 150 mls) of cellulose (15 g, Western Hemlock) at 50° C. over 90 minutes under stirring. Cold-deionised water was used to quench reaction and acid was removed by centrifugation (4,000 rpm, 10 minutes). Cellulose nanocrystals were dialysed (12-14 kDa for cytochrome C, Medicell Ltd) over 5 L with 6 changes over 24 hours. Resulting suspension was probe sonicated (400 watt, 23% amplitude, 10 minutes) in 50 mLs aliquots. The resulting suspension was centrifuged (4,000 rpm, 10 minutes) and supernatant was stored in the refrigerator. Cellulose nanocrystals (CNCs, 4.5% w/w, 2 g) were loaded onto a syringe attached to a three-way valve, where a syringe loaded sodium alginate (6% w/w in 4.6% glucose, 1.7 g). The CNCs were injected in the sodium alginate syringe and mixed 10 times (in each direction). Sample was collected in one syringe and a new syringe containing calcium chloride (0.1M, 0.9 mL). Sample was pushed into calcium chloride and mixed 5 times (in each direction) prior collecting the gel in one syringe and loading in cartridges. Peptide nanofibers (5 mg) were dispersed in 0.9 mL of 0.1M calcium chloride and mixed as above when needed. Release of paclitaxel loaded and TPGnRH gels in PBS (1×, 7.4, 6 mLs) was quantified as per HPLC method described previously (Example 7, Table 2). After an initial burst release, a controlled release profile is observed with gradual slow release over days. Resulting inks can be utilised for the production of nanofiber loaded implants for tumour patients.

[2] = biological target: T1, GnRH-R expressed on glioblastoma cells (Homo sapiens, UniProt P30968); assay: Receptor binding by single molecule force spectroscopy; conditions: for koff: read-out: Dissociation Rate (Koff)
T1 construct: GnRH peptides to the GnRH-R expressed on glioblastoma cells; endogenous in cells; host or cells: U-87 MG, UP-007, UP-029, SEBTA-023 glioblastoma cells (living)
T1 sequence (P30968 1-328): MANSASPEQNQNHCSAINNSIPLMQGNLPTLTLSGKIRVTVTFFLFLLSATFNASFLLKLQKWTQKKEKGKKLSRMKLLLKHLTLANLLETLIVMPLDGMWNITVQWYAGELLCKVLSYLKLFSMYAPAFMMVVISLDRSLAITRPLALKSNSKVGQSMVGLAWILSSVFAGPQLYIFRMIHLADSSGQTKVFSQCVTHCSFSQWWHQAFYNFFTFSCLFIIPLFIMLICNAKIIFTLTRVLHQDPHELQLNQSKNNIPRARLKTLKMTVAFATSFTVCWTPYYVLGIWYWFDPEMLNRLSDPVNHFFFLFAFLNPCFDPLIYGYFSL
Protocol: The binding of the GnRH analogues to GnRH-R was assessed using single molecule force spectroscopy (SMFS) and Topography and Recognition (TREC) imaging based on AFM. AFM tips were functionalised with Glu-GnRH, goserelin acetate and […] as a monomer and nanofibers using a previously described method ^9, 10. Silicon nitride (6-20 pN/nm spring constant, Bruker, Mass., USA) and magnetically coated […] tips (Keysight, Calif., USA) were used for SMFS and TREC studies, respectively. […] Subsequently, acetal groups were converted into aldehyde groups by immersing the tips in a 1% (w/v) citric acid solution for 10 minutes. […] Following an incubation of 2 hours, the free aldehyde groups were inactivated by ethanolamine for 10 minutes. AFM tips were washed with PBS three times and stored at 4° C. […] Loading rates were calculated by multiplying the pulling velocity (v) with the effective spring constant (keff). Spring constants were determined by the thermal-noise method. The force-distance curves were acquired using PicoView 1.12 (Agilent Technologies, Inc., California, USA) and analysed in Matlab 8.1 software (MathWorks, Massachusetts, USA). […] Amplitude-distance curves were collected on a glass coverslip to adjust the free oscillation amplitude, and to determine the optimal amplitude reduction value for driving the feedback loop during the imaging. Free amplitude of cantilever oscillation was 30 nm and the excitation frequency was set to 9 kHz.

GnRH-R on U-87 MG cells = biological target: T2, GnRH-R on U-87 MG cells (Homo sapiens, UniProt P30968); assay: SMFS blocking experiments with free GnRH-R ligands; assay type: binding
T2 construct: endogenous in cells; host or cells: U-87 MG
T2 sequence (P30968 1-328): T1 sequence (P30968 1-328)
Protocol: Blocking experiments were performed with different GnRH-R ligands (anti-GnRH-R antibody, Glu-GnRH, goserelin acetate, and TPGnRH). U-87 MG cells were analysed with tips functionalised with TPGnRH nanofibers and then the free ligands were added at a final concentration of 1 μg mL^−1 (anti-GnRH-R antibody) or 50 μg mL^−1 (Glu-GnRH, goserelin acetate and TPGnRH). U-87 MG cells treated with ligands were incubated for, at least, one hour at room temperature, and then the same cells were analysed with the same TPGnRH-functionalised tip at the same location in the cell.

[3] = Enzymatic stability in rat plasma; conditions: 50% (v/v) rat plasma
Protocol: (§1) Fresh blood, obtained from adult male Wistar rats, was collected in sterile the 170 I.U. lithium heparin-coated tubes (Vacutainer, BD Bioscience, UK). Blood was centrifuged immediately at 2,000 g for 15 minutes (4° C.) and supernatant was collected and diluted to 50% (v/v) with PBS. Livers and brains were obtained from adult male Wistar rats, and the tissues were blotted to dryness, weighed, sliced into pieces, and homogenised with ice-cold PBS (in 2 mL of buffer g^−1 of tissue) using the glass homogeniser. Then, tissue homogenates were centrifuged at 4,300 g for 1 hour (4° C.) and the supernatants collected. Glioblastoma cell homogenates were prepared using U-87 MG cells. Cells were cultured in Eagle's Minimum Essential Medium (EMEM) supplemented with 10% (v/v) heat-inactivated fetal bovine serum (FBS), 1% (v/v) of non-essential amino acids (NEAA) and 1 mM of sodium pyruvate in T75 flasks with a surface area of 75 cm^2 and maintained in a humidified atmosphere of 5% CO2 at 37° C. Breast cancer cell homogenates were prepared using MDA-MB-231 cells. Cells were cultured in Dulbecco's Modified Eagle Medium (DMEM) supplemented with high levels of glucose (4.5 g/L), 10% (v/v) heat-inactivated fetal bovine serum (FBS), 1% (v/v) of non-essential amino acids (NEAA) and penicillin and streptomycin (500 units/mL) in T75 flasks with a surface area of 75 cm^2 and maintained in a humidified atmosphere of 5% CO2 at 37° C. Media was changed for both cell lines every 3 to 4 days. After reaching confluence, cells were washed twice with Hank's Balanced Salt Solution (HBSS) and incubated with ˜2 mL of TrypLE Enzyme at 37° C. for ˜3 minutes. Then, complete media were added, and cells were centrifuged at 1,000 rpm for 5 minutes in C-28A centrifuge (Boeco, Germany). U-87 MG or MDA-MB-231 cells (˜10×10^6 cells mL^−1) were re-suspended in ice-cold PBS, and homogenised with a 2×5 second pulses with the probe sonicator (UP200S Ultrasonic processor, SciMed, 200 watts, amplitude of 60%). Cell debris were removed by centrifugation at 2,000 rpm for 5 minutes (Jouan B4i, Thermo Scientific, Paisley, UK). Supernatant was collected and stored at −80° C. Total protein concentration in the homogenates was determined using the Bradford assay with bovine serum albumin as a standard. Diluted plasma, tissue or cell homogenates were pre-warmed during ˜30 minutes at 37° C. Peptide stock solutions (Glu-GnRH, goserelin acetate and TPGnRH, 5 mM in PBS, 500 μL) were prepared and added to the homogenate solutions (120 μL). […] Samples were vortexed for 15 minutes, centrifuged for 15 minutes at 12,000 rpm, and the supernatants were collected and analysed by RP-HPLC.

[4] = Enzymatic stability in rat liver homogenates; conditions: 50% (v/v) rat liver homogenates; analyte in brackets of label
Protocol: (§2) Fresh blood, obtained from adult male Wistar rats, was collected in sterile the 170 I.U. lithium heparin-coated tubes (Vacutainer, BD Bioscience, UK). Blood was centrifuged immediately at 2,000 g for 15 minutes (4° C.) and supernatant was collected and diluted to 50% (v/v) with PBS. Livers and brains were obtained from adult male Wistar rats, and the tissues were blotted to dryness, weighed, sliced into pieces, and homogenised with ice-cold PBS (in 2 mL of buffer g^−1 of tissue) using the glass homogeniser. Then, tissue homogenates were centrifuged at 4,300 g for 1 hour (4° C.) and the supernatants collected. Glioblastoma cell homogenates were prepared using U-87 MG cells. Cells were cultured in Eagle's Minimum Essential Medium (EMEM) supplemented with 10% (v/v) heat-inactivated fetal bovine serum (FBS), 1% (v/v) of non-essential amino acids (NEAA) and 1 mM of sodium pyruvate in T75 flasks with a surface area of 75 cm^2 and maintained in a humidified atmosphere of 5% CO2 at 37° C. Breast cancer cell homogenates were prepared using MDA-MB-231 cells. Cells were cultured in Dulbecco's Modified Eagle Medium (DMEM) supplemented with high levels of glucose (4.5 g/L), 10% (v/v) heat-inactivated fetal bovine serum (FBS), 1% (v/v) of non-essential amino acids (NEAA) and penicillin and streptomycin (500 units/mL) in T75 flasks with a surface area of 75 cm^2 and maintained in a humidified atmosphere of 5% CO2 at 37° C. Media was changed for both cell lines every 3 to 4 days. After reaching confluence, cells were washed twice with Hank's Balanced Salt Solution (HBSS) and incubated with ˜2 mL of TrypLE Enzyme at 37° C. for ˜3 minutes. Then, complete media were added, and cells were centrifuged at 1,000 rpm for 5 minutes in C-28A centrifuge (Boeco, Germany). U-87 MG or MDA-MB-231 cells (˜10×10^6 cells mL^−1) were re-suspended in ice-cold PBS, and homogenised with a 2×5 second pulses with the probe sonicator (UP200S Ultrasonic processor, SciMed, 200 watts, amplitude of 60%). Cell debris were removed by centrifugation at 2,000 rpm for 5 minutes (Jouan B4i, Thermo Scientific, Paisley, UK). Supernatant was collected and stored at −80° C. Total protein concentration in the homogenates was determined using the Bradford assay with bovine serum albumin as a standard. Diluted plasma, tissue or cell homogenates were pre-warmed during ˜30 minutes at 37° C. Peptide stock solutions (Glu-GnRH, goserelin acetate and TPGnRH, 5 mM in PBS, 500 μL) were prepared and added to the homogenate solutions (120 μL). PAX-loaded nanofibers prepared at a ratio of 1:7.36 [PAX:TPGnRH consisting of 3 μmol (2.56 mg mL^−1) of PAX, 22.02 μmol (31.46 mg mL^−1) of TPGnRH], as previously described, and further diluted in PBS to achieve a concentration of 5 mM of TPGnRH and 500 nM of PAX (120 μL) were added to the homogenates. At various time intervals, an aliquot was collected (80 μL) and added to ice-cold ACN (80 μL) to quench the enzymatic activity. Samples were stored at −80° C. for at least 3 hours to maximise protein precipitation. Samples were vortexed for 15 minutes, centrifuged for 15 minutes at 12,000 rpm, and the supernatants were collected and analysed by RP-HPLC.

[5] = Enzymatic stability in rat brain homogenates; conditions: 50% (v/v) rat brain homogenates
Protocol: as §1

[6] = Enzymatic stability in U-87 MG cell homogenates
Protocol: Fresh blood, obtained from adult male Wistar rats, was collected in sterile the 170 I.U. lithium heparin-coated tubes (Vacutainer, BD Bioscience, UK). Blood was centrifuged immediately at 2,000 g for 15 minutes (4° C.) and supernatant was collected and diluted to 50% (v/v) with PBS. Livers and brains were obtained from adult male Wistar rats, and the tissues were blotted to dryness, weighed, sliced into pieces, and homogenised with ice-cold PBS (in 2 mL of buffer g^−1 of tissue) using the glass homogeniser. Then, tissue homogenates were centrifuged at 4,300 g for 1 hour (4° C.) and the supernatants collected. Glioblastoma cell homogenates were prepared using U-87 MG cells. Cells were cultured in Eagle's Minimum Essential Medium (EMEM) supplemented with 10% (v/v) heat-inactivated fetal bovine serum (FBS), 1% (v/v) of non-essential amino acids (NEAA) and 1 mM of sodium pyruvate in T75 flasks with a surface area of 75 cm^2 and maintained in a humidified atmosphere of 5% CO2 at 37° C. Breast cancer cell homogenates were prepared using MDA-MB-231 cells. Cells were cultured in Dulbecco's Modified Eagle Medium (DMEM) supplemented with high levels of glucose (4.5 g/L), 10% (v/v) heat-inactivated fetal bovine serum (FBS), 1% (v/v) of non-essential amino acids (NEAA) and penicillin and streptomycin (500 units/mL) in T75 flasks with a surface area of 75 cm^2 and maintained in a humidified atmosphere of 5% CO2 at 37° C. Media was changed for both cell lines every 3 to 4 days. After reaching confluence, cells were washed twice with Hank's Balanced Salt Solution (HBSS) and incubated with ˜2 mL of TrypLE Enzyme at 37° C. for ˜3 minutes. Then, complete media were added, and cells were centrifuged at 1,000 rpm for 5 minutes in C-28A centrifuge (Boeco, Germany). […] Total protein concentration in the homogenates was determined using the Bradford assay with bovine serum albumin as a standard. […] Samples were vortexed for 15 minutes, centrifuged for 15 minutes at 12,000 rpm, and the supernatants were collected and analysed by RP-HPLC.

[7] = Enzymatic stability in MDA-MB-231 cell homogenates
Protocol: as §2

[8] = after pre-incubation with the free ligand named as label (antibody 1 μg mL^−1, peptides 50 μg mL^−1)
[9] = before addition of the free ligand named as label (no pre-incubation)
[10] = human, MDA-MB-231 breast cancer cell homogenate

Papp A→B at 50 μg mL^−1 (in vitro): 0.19 ×10⁻⁶ cm/s
solubility (physchem; aqueous buffer): 0.92 ± 1.35 µg/mL (≈ 1.08 µM)
solubility (physchem; aqueous with cosolvent or surfactant or cyclodextrin): 29.3 ± 3.63 µg/mL (≈ 34.3 µM)
% release from 3D printed bioink ([1]; 0 minutes): 0%
% release from 3D printed bioink ([1]; 1 minutes): 13.1 ± 15.6%
% release from 3D printed bioink ([1]; 5 minutes): 13.7 ± 5.6%
% release from 3D printed bioink ([1]; 10 minutes): 18.0 ± 10.6%
% release from 3D printed bioink ([1]; 15 minutes): 10.7 ± 2.3%
% release from 3D printed bioink ([1]; 30 minutes): 11.8 ± 5.2%
% release from 3D printed bioink ([1]; 45 minutes): 13.7 ± 8.4%
% release from 3D printed bioink ([1]; 60 minutes): 20.7 ± 9.6%
% release from 3D printed bioink ([1]; 90 minutes): 24.6 ± 5.1%
% release from 3D printed bioink ([1]; 120 minutes): 26.9 ± 9.4%
% release from 3D printed bioink ([1]; 240 minutes): 19.0 ± 10.9%
% release from 3D printed bioink ([1]; 360 minutes): 24.8 ± 7.3%
% release from 3D printed bioink ([1]; 1110 minutes): 28.0 ± 11.4%
% release from 3D printed bioink ([1]; 1440 minutes): 30.2 ± 9.8%
% release from 3D printed bioink ([1]; 2760 minutes): 37.1 ± 7.2%
Structure (SMILES): CC(=O)O[C@H]1C(=O)[C@@]2(C)[C@H]([C@H](OC(=O)c3ccccc3)[C@]3(O)C[C@H](OC(=O)[C@H](O)[C@@H](NC(=O)c4ccccc4)c4ccccc4)C(C)=C1C3(C)C)[C@]1(OC(C)=O)CO[C@@H]1C[C@@H]2O [PAX, Paclitaxel, reference compound]

Binding Force ([2]; U-87 MG): 29.88 ± 2.34 pN
Binding Probability ([2]; U-87 MG): 4.4 ± 0.94%
koff ([2]; U-87 MG): 0.68 ± 0.08 s⁻¹
Binding Force ([2]; UP-007): 34.00 ± 15.5 pN
Binding Probability ([2]; UP-007): 7.48 ± 0.76%
koff ([2]; UP-007): 1.54 ± 0.12 s⁻¹
Binding Probability of TPGnRH nanofiber tip to U-87 MG cells (GnRH-R on U-87 MG cells; [8]): 3.8%
Binding Probability of TPGnRH nanofiber tip to U-87 MG cells (GnRH-R on U-87 MG cells; [9]): 16.2%
Structure (SMILES): CC(C)C[C@H](NC(=O)[C@@H](COC(C)(C)C)NC(=O)[C@H](Cc1ccc(O)cc1)NC(=O)[C@H](CO)NC(=O)[C@H](Cc1c[nH]c2ccccc12)NC(=O)[C@H](Cc1cnc[nH]1)NC(=O)[C@@H]1CCC(=O)N1)C(=O)N[C@@H](CCCNC(=N)N)C(=O)N1CCC[C@H]1C(=O)NNC(N)=O [Goserelin, goserelin acetate, reference compound]

Binding Force ([2]; SEBTA-023): 40.3 ± 11.70 pN
Binding Probability ([2]; SEBTA-023): 4.93 ± 0.91%
koff ([2]; SEBTA-023): 1.22 ± 0.31 s⁻¹
Binding Force ([2]; U-87 MG): 25.88 ± 0.94 pN
Binding Probability ([2]; U-87 MG): 13.3 ± 1.91%
koff ([2]; U-87 MG): 1.29 ± 0.34 s⁻¹
Binding Force ([2]; UP-007): 38.20 ± 9.16 pN
Binding Probability ([2]; UP-007): 12.84 ± 4.32%
koff ([2]; UP-007): 1.52 ± 0.2 s⁻¹
Binding Force ([2]; UP-029): 45.6 ± 4.64 pN
Binding Probability ([2]; UP-029): 6.93 ± 2.96%
koff ([2]; UP-029): 1.66 ± 0.25 s⁻¹
Plateau [3]: 3.952 µg/mL
k ([3]; analyte in brackets of label): 0.04021 min⁻¹
Plateau [4]: 16.58 µg/mL
T1/2α [4]: 0.67 ± 0.03 min
kα [4]: 1.088 min⁻¹
Plateau [5]: 3.952 µg/mL
k ([5]; analyte in brackets of label): 0.1928 min⁻¹
Plateau [6]: 3.952 µg/mL
k ([6]; analyte in brackets of label): 0.1928 min⁻¹
Binding Probability of TPGnRH nanofiber tip to U-87 MG cells (GnRH-R on U-87 MG cells; [8]): 3.4%
Binding Probability of TPGnRH nanofiber tip to U-87 MG cells (GnRH-R on U-87 MG cells; [9]): 12.6%
Plateau ([7]; MDA-MB-231 cell homogenates): 552.9 µg/mL
k ([7]; MDA-MB-231 cell homogenates): 0.1551 min⁻¹
AUC(0-t) at 4.03 mM [7, 10]: 20000 µg·h/mL
C0 at 4.03 mM [7, 10]: 1420 µg/mL
half-life at 4.03 mM [7, 10]: 4.47 ± 1.27 min
Structure (SMILES): CC(C)C[C@H](NC(=O)CNC(=O)[C@H](Cc1ccc(O)cc1)NC(=O)[C@H](CO)NC(=O)[C@H](Cc1c[nH]c2ccccc12)NC(=O)[C@H](Cc1cnc[nH]1)NC(=O)[C@@H](N)CCC(=O)O)C(=O)N[C@@H](CCCNC(=N)N)C(=O)N1CCC[C@H]1C(=O)NCC(N)=O [Glu-GnRH, Glu-His-Trp-Ser^4-Tyr^5-Gly^6-Leu-Arg-Pro-Gly-NH2, reference compound]
